The text below walks through data of US7629318B2, “Immunosuppressant compounds, methods and uses related thereto” (priority 2002, dated 2009).

The structures appear in SMILES notation. Values joined by “and” are separate entries in the source; they are usually repeats but may differ in a detail not shown here. Equal entries are not always repeated. Numbered stars: 1 amine (or outer) side, 2 acyl side, 3 side chain; on linkers, the order of the positions; unused ones are H or OH. Square brackets hold non-standard residues; d marks the D form. Peptide text beside a SMILES is read from it. * marks the point of attachment. ξ: configuration not given here. Gly(1-amidinopiperidin-4-yl) = N=C(N)N1CCC([C@H](N)C(=O)O)CC1; X1 = CC(C)c1oc([C@H](CO)N[*:1])nc1C(=O)[*:2]; Pro(3R-Ph) = O=C(O)[C@H]1NCC[C@@H]1c1ccccc1; Tic = O=C(O)[C@@H]1Cc2ccccc2CN1; Cha = N[C@@H](CC1CCCCC1)C(=O)O; NHPhenethyl = c1ccc(CCN*)cc1; NMe(benzyl) = CN(Cc1ccccc1)*; ξDisc = O=C(O)C1NCc2ccccc21; Nle = CCCC[C@H](N)C(=O)O; X2 = OCCOCCN(Cc1ccccc1)*; NHBn = c1ccc(CN*)cc1

As a reminder, the IC50 is the midpoint of a concentration-inhibition curve.

Data set [1] has as its target DR1 (DRA1*0101 DRB1*0101) (Homo sapiens, UniProt P01903+P01911, A100R/D57E/F55L/F60I/F76Y/I96L/L162R/M171V/P40L/Q125E/R42F/V115G/Y59C). The data set is described as follows: Competitive binding to MHC-II protein DR1. The following applies: Protein binding IC50 (nM) 0101, 0101. In short, it runs like this:
(§1)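 Each MHC-II allele incubated with compound 16 hours at room temperature in duplicate; controls lacked compound, or both compound and MHC-II. Complexes captured 2 h at 4 °C, bound biotinylated peptide detected via europium-streptavidin and DELFIA enhancement, time-resolved fluorescence read at ex 340/em 613 (615) nm.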

Data set [2] relates to T-cell proliferation, lymph node cells of chimeric 0401-IE transgenic mice. The following applies: for Immunsupressive assays DR4-LN (Max) % Inhibition: maximal inhibition; for IC50: read-out: Immunsupressive assays DR4-LN (IC50); for Immunsupressive assays DR4-LN (Max) % Inhibition / IC50: DR4-LN; for immunosuppressive properties as measured by a T-cell activation assay: dose-response curves. In short, it runs like this: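 Antigen-primed lymph node cells (1.5×10^5/well) from mice lacking murine class II and carrying a chimeric human RA-associated class II transgene, cultured 3 days with ovalbumin at half-maximal dose plus compound (~0.1–200 uM) in serum-free HL-1. Proliferation read by 3H-thymidine incorporation over the final 16 h.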

Data set [3] deals with T-cell proliferation, DR14-LN. To be noted: for Immunsupressive assays DR14-LN (Max) % Inhibition: maximal inhibition; for IC50: read-out: Immunsupressive assays DR14-LN (IC50).
Data set [4] addresses Cathepsin B1 (EC 3.4.22.1 from bovine spleen) (Bos taurus, UniProt P07688). To be noted: Cathepsin B, 4 h.
Data set [5] has as its target DR4Dw14 (DRA1*0101 DRB1*0404) (Homo sapiens, UniProt P01903+P01911, A100R/A169T/F76Y/I96L/K127E/L162R/M171V/N62H/P40V/Q125Y/R42H/S133A/S149N/S66Y/V209L/W38E). The data set can be described thus: Competitive binding to MHC-II protein DR4Dw14. The following applies: 0404; read-out: Protein binding IC50 (nM) 0404. In outline: as §1
For data set [6], the target named is DR4Dw4 (DRA1*0101 DRB1*0401) (Homo sapiens, UniProt P01903+P01911, A100K/A169T/F76Y/I96L/K127E/L162R/M171V/N62H/P40V/Q125Y/R42H/S133A/S149N/S66Y/V115G/V209L/W38E). The data set can be described thus: Competitive binding to MHC-II protein DR4Dw4. In short, it runs like this:
as §1

With `CCCC[C@H](NC(=O)[C@@H]1Cc2ccccc2CN1C(=O)[C@@H](NC(=O)[C@H](CC1CCCCC1)NC(C)=O)C1CCN(C(=N)N)CC1)C(=O)NCc1ccccc1` [Compound P68, Ac-Cha-Gpg-Tic-Nle-N(H)Bn] (Ac-[Cha][Gly(1-amidinopiperidin-4-yl)][Tic][Nle]-NHBn), the IC50 in data set [1] was 600 nM; in data set [2], 18 µM; in data set [3] it was 17 µM; in data set [5], 2000 nM; in data set [6], 2.1 µM. Also, in data set [2], the “Immunsupressive assays DR4-LN (Max) % Inhibition” value came out at 102%. In data set [3], the “Immunsupressive assays DR14-LN (Max) % Inhibition” value is recorded as 105%. The “Stability (Arbitrary units) Cath B 4 h” value in data set [4] is 52 Arbitrary units.

In the case of `CCCC[C@H](NC(=O)[C@@H]1Cc2ccccc2CN1C(=O)[C@@H](NC(=O)[C@H](CC1CCCCC1)NC(C)=O)C1CCN(C(=N)N)CC1)C(=O)NCCc1ccccc1` [Compound P69, Ac-Cha-Gpg-Tic-Nle-N(H)CH2CH2Ph] (Ac-[Cha][Gly(1-amidinopiperidin-4-yl)][Tic][Nle]-NHPhenethyl), the IC50 is 690 nM in data set [1]; 19 µM in data set [2]; 23 µM in data set [3]; 4500 nM in data set [5]; 3.6 µM in data set [6]. Besides, in data set [2], the “Immunsupressive assays DR4-LN (Max) % Inhibition” value came out at 101%. Besides, the “immunosuppressive properties as measured by a T-cell activation assay” value (shortened to “immunosuppressive properties as measured”) in data set [2] is “immunosuppressive properties”. The “Immunsupressive assays DR14-LN (Max) % Inhibition” value in data set [3] is on record as 107%. Moreover, in data set [4], the “Stability (Arbitrary units) Cath B 4 h” value was determined as 92 Arbitrary units.

In the case of `CCCC[C@H](NC(=O)C1c2ccccc2CN1C(=O)[C@H](CCCNC(=N)N)NC(=O)[C@H](CC1CCCCC1)NC(C)=O)C(=O)N(C)Cc1ccccc1` (stereo partly drawn) [Compound P72-1, Ac-Cha-Arg-Disc-Nle-N(Me)Bn] (Ac-[Cha]R[ξDisc][Nle]-{NMe(benzyl)}), the half-inhibitory concentration (IC50) was 1200 nM in data set [1]; 31 µM in data set [2]; 29 µM in data set [3]; 1700 nM in data set [5]; 5.2 µM in data set [6]. Further, in data set [2], the “Immunsupressive assays DR4-LN (Max) % Inhibition” value is given as 103%. Further, the “Immunsupressive assays DR14-LN (Max) % Inhibition” value in data set [3] was found to be 95%. The “Stability (Arbitrary units) Cath B 4 h” value in data set [4] amounted to 98 Arbitrary units.

`CCCC[C@H](NC(=O)[C@@H]1Cc2ccccc2CN1C(=O)[C@@H](NC(=O)[C@H](CC1CCCCC1)NC(C)=O)C1CCN(C(=N)N)CC1)C(=O)N(C)Cc1ccccc1` [Compound P74, Ac-Cha-Gpg-Tic-Nle-N(Me)Bn] (Ac-[Cha][Gly(1-amidinopiperidin-4-yl)][Tic][Nle]-{NMe(benzyl)}): the concentration for half-maximal inhibition (IC50) in data set [1] is 360 nM; in data set [2], 16 µM and 18 µM; in data set [3], 14 µM; in data set [5], 2200 nM; in data set [6] it was 3.4 µM. The “Immunsupressive assays DR4-LN (Max) % Inhibition” value in data set [2] came out at 102%. For the same compound, the “immunosuppressive properties as measured” value in data set [2] was “immunosuppressive properties”. Moreover, in data set [3], the “Immunsupressive assays DR14-LN (Max) % Inhibition” value was 97%. Further, the “Stability (Arbitrary units) Cath B 4 h” value in data set [4] worked out at 105 Arbitrary units.

Turning to `CCCC[C@H](NC(=O)C1c2ccccc2CN1C(=O)[C@@H](NC(=O)[C@H](CC1CCCCC1)NC(C)=O)C1CCN(C(=N)N)CC1)C(=O)N1CC[C@H](c2ccccc2)[C@H]1C(=O)N[C@@H](CO)c1nc(C(=O)N(C)C)c(C(C)C)o1` (stereo partly drawn) [Compound P81-1] (Ac-[Cha][Gly(1-amidinopiperidin-4-yl)][ξDisc][Nle][Pro(3R-Ph)][X1]-NMe2), the IC50 in data set [1] turned out to be 220 nM; in data set [2], 63 µM; in data set [3], 43 µM; in data set [5], 90 nM; in data set [6] it was 0.26 µM. In addition, the “Stability (Arbitrary units) Cath B 4 h” value in data set [4] was 105 Arbitrary units.

As for `CCCC[C@H](NC(=O)[C@@H]1Cc2ccccc2CN1C(=O)[C@@H](NC(=O)[C@H](CC1CCCCC1)NC(C)=O)C1CCN(C(=N)N)CC1)C(=O)N(CCOCCO)Cc1ccccc1` [Compound P101, Ac-Cha-Gpg-Tic-Nle-N(Bn)CH2CH2OCH2CH2OH] (Ac-[Cha][Gly(1-amidinopiperidin-4-yl)][Tic][Nle]-X2), the IC50 in data set [1] was 500 nM; in data set [2] it was 69 µM and 66 µM; in data set [3] it was 46 µM; in data set [5], 650 nM; in data set [6], 1.5 µM. Also, the “Immunsupressive assays DR4-LN (Max) % Inhibition” value in data set [2] is listed as 100%. Also, the “immunosuppressive properties as measured” value in data set [2] is reported as “immunosuppressive properties”. For the same compound, in data set [3], the “Immunsupressive assays DR14-LN (Max) % Inhibition” value is 100%. The “Stability (Arbitrary units) Cath B 4 h” value in data set [4] was 100 Arbitrary units.

On to `CSCC[C@H](NC(=O)[C@@H]1Cc2ccccc2CN1C(=O)[C@@H](NC(=O)[C@H](CC1CCCCC1)NC(C)=O)C1CCN(C(=N)N)CC1)C(=O)N(CCOCCO)Cc1ccccc1` [Compound P102, Ac-Cha-Gpg-Tic-Met-N(Bn)CH2CH2OCH2CH2OH] (Ac-[Cha][Gly(1-amidinopiperidin-4-yl)][Tic]M-X2), for which the IC50 was determined as 580 nM in data set [1]; 110 µM in data set [2]; 73 µM in data set [3]; 2100 nM in data set [5]; 1.7 µM in data set [6]. For the same compound, the “Immunsupressive assays DR4-LN (Max) % Inhibition” value in data set [2] stood at 60%. Moreover, in data set [3], the “Immunsupressive assays DR14-LN (Max) % Inhibition” value turned out to be 100%. Besides, the “Stability (Arbitrary units) Cath B 4 h” value in data set [4] is recorded as 116 Arbitrary units.
